In patent US7666900B2, “ABCA1 stabilizer” (Hykes Laboratories LLC, priority 2004, dated 2010):

Columns and labels:
ABCA1 = ABCA1 expression in THP-1 cells (immunoblotting of total membrane fraction); type: cell-based, human; conditions: for ABCA1 Expression Level (Relative Ratio %): PMA-differentiated THP-1 macrophages, compound incorporated into acetyl-LDL, 48 h then 24 h with or without apoAI, non-treated cells = 100; for intracellular ABCA1 expression level compared with non-treated cells (in words): THP-1 cells
Protocol: (§1) THP-1 cells (human leukemia cells: American Type Culture Collection) were cultured for 72 hours in a 10% FBS-RPMI1640 medium (Iwaki Glass Co., Ltd.) under the presence of PMA (phorbol myristate acetate, 3.2×10^−7 M: Wako Pure Chemical Industries, Ltd.) to obtain differentiated macrophages. Probucol spiroquinone (Synthesis Example 1), probucol diphenoquinone (Synthesis Example 2), or probucol bisphenol (Synthesis Example 3) was added to a medium after being incorporated into acetyl-LDL according to a method of Tsujita, et al. [BIOCHEMISTRY, 35, 13011-13020 (1996)]. The cells were cultured in this medium for 48 hours, and then further cultured for 24 hours in the presence or absence of apoAI. The expression levels of intracellular ABCA1 were assayed according to a method disclosed herein below.
The agent-treated cells and non-treated cells were hypotonically disrupted in 5 mM Tris-HCl (pH 8.5), and then centrifuged (650 g for 5 minutes) to precipitate nuclear fractions. The supernatant was centrifuged at 105,000 g for 30 minutes to collect a total membrane fraction. The total membrane was dissolved in a solution containing 0.9 M urea, 0.2% Triton X-100, and 0.1% dithiothreitol, followed by addition of 10% lithium dodecyl sulfate solution at a volume ratio of 1/4. The resultant was subjected to electrophoretic separation using 10% SDS-7% polyacrylamide gel. The separated proteins were transferred and fixed onto PVDF membrane (Bio-Rad), and then subjected to immunoblotting with anti-human ABCA1 rabbit antibody (self-purified by an ordinary technique) to examine expressed ABCA1 protein levels. The obtained bands of the protein were read for density and size with Scion Image (image analysis software: Scion) to convert the results into digitized forms. The relative ratio of the ABCA1 expression level of the drug-treated cells to that of the non-treated cells was calculated to evaluate the ABCA1-expression activity of the assayed compounds.

[1] = Increase of blood HDL level (rabbit), intravenous microemulsion; type: in vivo; conditions: i.v. microemulsion once a day for 7 days, control = 100
Protocol: The microemulsion (0.5 to 10 mL/body) was administered to each group of 4 rabbits via the ear vein once a day for 7 days. To a control group, a microemulsion containing no test drug was administered in the same manner. Blood was collected in the presence of heparin sodium from the ear vein of each rabbit at 3 hours after the last administration. The blood was centrifuged at 2000 g for 10 minutes to separate plasma. The plasma was applied to electrophoresis using Paragon Electrophoresis System (Beckman Coulter, Inc.) to separate plasma lipoprotein, followed by lipid staining. The images on the gel after the lipid staining were examined to covert the plasma HDL level of each rabbit into a digitized form for the evaluation. In reference to the content amount of each compound in the microemulsion, each blood compound level assumed just after the intravenous administration thereof was set as the dose of each compound.

[2] = Toxicity test, oral administration to mice for one week; type: in vivo
Description: Probucol spiroquinone, probucol diphenoquinone, and probucol bisphenol were orally administered to mice for one week.

THP-1 cells = experiment: apoAI-dependent HDL-generating reaction in THP-1 cells (cholesterol and phospholipid taken out into the medium); type: cell-based, human; conditions: for Release of HDL Cholesterol (Relative Ratio %) / Release of Phospholipid (Relative Ratio %): apoAI-dependent, non-treated cells = 100
Protocol: as §1
The cultured cells obtained in the same manner as in Assay Example 1 were examined for cholesterol and phospholipid taken out into the medium by the apoAI-dependent HDL-generating reaction, according to a method of Arakawa, et al. [J. LIPID RES., 41, 1952-1962, (2000)]. The results of the drug-treated cells were compared with that of non-treated cells (control). The resulting data were converted into digitized forms as in Assay Example 1, and the relative ratios of the taken out level in the drug-treated cells to that in the non-treated cells were calculated to evaluate the HDL-generating reaction accelerated by the assayed compounds. For comparison, the HDL-generating reaction accelerated by probucol (Wako Pure Chemical Industries, Ltd.) was examined in the same manner as aforementioned.

[3] = Increase of blood HDL level (mouse), oral administration; type: in vivo; conditions: for Plasma HDL Level (Relative Ratio %): 3 hours after last administration, control = 100
Protocol: Probucol spiroquinone (Synthesis Example 1: 50 mg/kg or 150 mg/kg) or probucol diphenoquinone (Synthesis Example 2: 50 mg/kg or 150 mg/kg) suspended in a 0.5% carboxymethylcellulose solution was orally administered to each group of 3 or 4 mice once a day for 7 days. To a control group, only the 0.5% carboxymethylcellulose solution was administered in the same manner. Animals were subjected to laparotomy under ether anesthesia at 3 hours after the last administration, and blood was collected in the presence of heparin sodium from the heart of each mouse. The blood was centrifuged at 2000 g for 10 minutes to separate plasma. The plasma was applied to electrophoresis using Paragon Electrophoresis System (Beckman Coulter, Inc.) to separate plasma lipoprotein, followed by lipid staining. The images on the gel after the lipid staining were examined to covert the plasma HDL level of each mouse into a digitized form for the evaluation.

[4] = dose as assumed blood level 0.14 μM
[5] = dose as assumed blood level 0.57 μM
[6] = 50 mg/kg orally once a day for 7 days
[7] = 150 mg/kg orally once a day for 7 days

CC(C)(C)c1cc(-c2cc(C(C)(C)C)c(O)c(C(C)(C)C)c2)cc(C(C)(C)C)c1O [Probucol bisphenol, 4,4′-dihydroxy-3,5,3′,5′-tetra-t-butyldiphenyl]
ABCA1 Expression Level (Relative Ratio %) (ABCA1): 153% | intracellular ABCA1 expression level compared with non-treated cells (in words) (ABCA1): remarkably elevated | Plasma HDL Level (Relative Ratio %) [1, 4]: 145% | Plasma HDL Level (Relative Ratio %) [1, 5]: 135% | findings in toxicity test [2]: no abnormal findings were observed | Release of HDL Cholesterol (Relative Ratio %) (THP-1 cells): 137% | Release of Phospholipid (Relative Ratio %) (THP-1 cells): 144%

CC(C)(C)C1=CC(=C2C=C(C(C)(C)C)C(=O)C(C(C)(C)C)=C2)C=C(C(C)(C)C)C1=O [Probucol diphenoquinone, 3,5,3′,5′-tetra-t-butyl-4,4′-diphenoquinone]
ABCA1 Expression Level (Relative Ratio %) (ABCA1): 173% | intracellular ABCA1 expression level compared with non-treated cells (in words) (ABCA1): remarkably elevated | Plasma HDL Level (Relative Ratio %) [3, 6]: 113% | Plasma HDL Level (Relative Ratio %) [3, 7]: 180% | Plasma HDL Level (Relative Ratio %) ([1]; dose as assumed blood level 0.16 μM): 148% | Plasma HDL Level (Relative Ratio %) ([1]; dose as assumed blood level 0.31 μM): 130% | findings in toxicity test [2]: no abnormal findings were observed | Release of HDL Cholesterol (Relative Ratio %) (THP-1 cells): 159% | Release of Phospholipid (Relative Ratio %) (THP-1 cells): 200%

CC1(C)SC2(C=C(C(C)(C)C)C(=O)C(C(C)(C)C)=C2)C2(C=C(C(C)(C)C)C(=O)C(C(C)(C)C)=C2)S1 [Probucol spiroquinone, 2,4,9,11-tetrakis(1,1-dimethylethyl)-14,14-dimethyl-13,15-dithiadispiro[5.0.5.3]pentadeca-1,4,8,11-tetraene-3,10-dione]
ABCA1 Expression Level (Relative Ratio %) (ABCA1): 191% | intracellular ABCA1 expression level compared with non-treated cells (in words) (ABCA1): remarkably elevated | Plasma HDL Level (Relative Ratio %) [3, 6]: 120% | Plasma HDL Level (Relative Ratio %) [3, 7]: 124% | plasma HDL level increase compared with control group ([3]; 50 or 150 mg/kg orally once a day for 7 days): about 1.2 times | Plasma HDL Level (Relative Ratio %) [1, 4]: 157% | Plasma HDL Level (Relative Ratio %) [1, 5]: 194% | findings in toxicity test [2]: no abnormal findings were observed | Release of HDL Cholesterol (Relative Ratio %) (THP-1 cells): 148% | Release of Phospholipid (Relative Ratio %) (THP-1 cells): 151%

CC(C)(Sc1cc(C(C)(C)C)c(O)c(C(C)(C)C)c1)Sc1cc(C(C)(C)C)c(O)c(C(C)(C)C)c1 [Probucol, 4,4′-(isopropylidenedithio)bis(2,6-di-t-butylphenol), reference compound]
apoAI-dependently taken out HDL cholesterol (in words) (THP-1 cells): no apoAI-dependently taken out HDL cholesterol was observed | level of taken out phospholipid as fraction of non-treated cells (THP-1 cells): less than ⅓ | Release of HDL Cholesterol (Relative Ratio %) (THP-1 cells): 0% | Release of Phospholipid (Relative Ratio %) (THP-1 cells): 34%
